Measurements as given in PMC6407913, “DREADD Agonist 21 Is an Effective Agonist for Muscarinic-Based DREADDs in Vitro and in Vivo” (ACS Pharmacology & Translational Science, 2018).
“And” between values parts separate entries of the source, which are not always exact repeats. Equal values may be shown once.

Assays:
Assay type in all cases: cell-based
[1] = target: T1, 318 nonolfactory human GPCRs (Homo sapiens, UniProt Q6U736); details: OPN5; C21 5 µM
T1 construct: expressed in transfected cells; host or cells: HTLA cells, transient
T1 sequence (Q6U736 whole entry): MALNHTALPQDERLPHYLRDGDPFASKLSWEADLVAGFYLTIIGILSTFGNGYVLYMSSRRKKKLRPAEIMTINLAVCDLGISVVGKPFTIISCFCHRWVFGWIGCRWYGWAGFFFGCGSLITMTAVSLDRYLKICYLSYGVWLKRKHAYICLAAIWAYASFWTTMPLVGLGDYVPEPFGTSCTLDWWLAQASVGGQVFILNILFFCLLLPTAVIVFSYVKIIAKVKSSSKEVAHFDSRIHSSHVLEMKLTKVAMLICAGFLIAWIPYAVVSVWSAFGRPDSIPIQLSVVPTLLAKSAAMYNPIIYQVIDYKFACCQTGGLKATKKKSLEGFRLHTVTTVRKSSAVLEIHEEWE

[2] = target: T2, 318 nonolfactory human GPCRs (Homo sapiens, UniProt P28336); details: NMBR; C21 5 µM
T2 construct: expressed in transfected cells; host or cells: HTLA cells, transient

[3] = target: T3, 318 nonolfactory human GPCRs (Homo sapiens, UniProt Q9P296); details: GPR77; C21 5 µM
T3 construct: expressed in transfected cells; host or cells: HTLA cells, transient

[4] = target: T4, 318 nonolfactory human GPCRs (Homo sapiens, UniProt Q15077); details: P2RY6; C21 5 µM
T4 construct: expressed in transfected cells; host or cells: HTLA cells, transient
T4 sequence (Q15077 whole entry): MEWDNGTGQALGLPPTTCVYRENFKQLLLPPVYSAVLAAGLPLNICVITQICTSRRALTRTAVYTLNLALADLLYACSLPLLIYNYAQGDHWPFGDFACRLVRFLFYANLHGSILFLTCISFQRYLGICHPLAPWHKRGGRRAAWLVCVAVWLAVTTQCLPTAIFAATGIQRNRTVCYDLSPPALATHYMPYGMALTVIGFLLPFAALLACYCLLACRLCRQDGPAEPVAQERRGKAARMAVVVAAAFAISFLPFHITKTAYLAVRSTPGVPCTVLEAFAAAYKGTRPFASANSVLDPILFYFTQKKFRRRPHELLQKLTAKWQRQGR

[5] = target: 318 nonolfactory human GPCRs (Homo sapiens, UniProt Q9UPC5); details: GPR34; C21 5 µM
[6] = target: T5, 318 nonolfactory human GPCRs (Homo sapiens, UniProt P50391); details: NPY4R; C21 5 µM
T5 construct: expressed in transfected cells; host or cells: HTLA cells, transient

[7] = target: T6, 318 nonolfactory human GPCRs (Homo sapiens, UniProt Q9BPV8); details: P2RY13; C21 5 µM
T6 construct: expressed in transfected cells; host or cells: HTLA cells, transient

[8] = target: T7, 318 nonolfactory human GPCRs (Homo sapiens, UniProt Q9Y5Y4); details: GPR44; C21 5 µM
T7 construct: expressed in transfected cells; host or cells: HTLA cells, transient
T7 sequence (Q9Y5Y4 whole entry): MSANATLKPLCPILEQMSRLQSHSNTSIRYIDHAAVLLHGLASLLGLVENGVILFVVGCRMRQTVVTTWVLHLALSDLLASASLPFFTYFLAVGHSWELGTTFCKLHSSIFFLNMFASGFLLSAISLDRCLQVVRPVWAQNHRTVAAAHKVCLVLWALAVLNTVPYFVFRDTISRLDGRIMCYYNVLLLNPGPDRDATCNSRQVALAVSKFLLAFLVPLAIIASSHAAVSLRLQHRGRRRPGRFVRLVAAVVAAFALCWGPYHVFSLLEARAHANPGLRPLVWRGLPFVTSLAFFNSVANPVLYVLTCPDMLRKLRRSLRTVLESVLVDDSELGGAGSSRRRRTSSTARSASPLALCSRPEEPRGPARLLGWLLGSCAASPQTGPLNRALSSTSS

[9] = target: T8, 318 nonolfactory human GPCRs (Homo sapiens, UniProt P25116); details: F2R; C21 5 µM
T8 construct: expressed in transfected cells; host or cells: HTLA cells, transient
T8 sequence (P25116 22-425): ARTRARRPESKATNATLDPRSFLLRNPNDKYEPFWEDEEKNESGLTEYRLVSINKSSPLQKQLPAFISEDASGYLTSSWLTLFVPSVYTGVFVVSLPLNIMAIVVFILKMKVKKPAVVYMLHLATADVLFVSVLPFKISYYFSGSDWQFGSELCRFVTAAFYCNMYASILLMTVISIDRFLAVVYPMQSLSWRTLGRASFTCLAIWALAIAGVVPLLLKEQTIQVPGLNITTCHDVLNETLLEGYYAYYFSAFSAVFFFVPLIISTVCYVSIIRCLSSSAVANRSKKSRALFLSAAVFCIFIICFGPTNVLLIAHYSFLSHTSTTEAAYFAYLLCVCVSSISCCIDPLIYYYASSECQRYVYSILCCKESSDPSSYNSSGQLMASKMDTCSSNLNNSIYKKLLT

[10] = target: T9, 318 nonolfactory human GPCRs (Homo sapiens, UniProt Q86SP6); details: GPR149; C21 5 µM
T9 construct: expressed in transfected cells; host or cells: HTLA cells, transient

[11] = target: T10, 318 nonolfactory human GPCRs (Homo sapiens, UniProt Q14439); details: GPR176; C21 5 µM
T10 construct: expressed in transfected cells; host or cells: HTLA cells, transient
T10 sequence (Q14439 whole entry): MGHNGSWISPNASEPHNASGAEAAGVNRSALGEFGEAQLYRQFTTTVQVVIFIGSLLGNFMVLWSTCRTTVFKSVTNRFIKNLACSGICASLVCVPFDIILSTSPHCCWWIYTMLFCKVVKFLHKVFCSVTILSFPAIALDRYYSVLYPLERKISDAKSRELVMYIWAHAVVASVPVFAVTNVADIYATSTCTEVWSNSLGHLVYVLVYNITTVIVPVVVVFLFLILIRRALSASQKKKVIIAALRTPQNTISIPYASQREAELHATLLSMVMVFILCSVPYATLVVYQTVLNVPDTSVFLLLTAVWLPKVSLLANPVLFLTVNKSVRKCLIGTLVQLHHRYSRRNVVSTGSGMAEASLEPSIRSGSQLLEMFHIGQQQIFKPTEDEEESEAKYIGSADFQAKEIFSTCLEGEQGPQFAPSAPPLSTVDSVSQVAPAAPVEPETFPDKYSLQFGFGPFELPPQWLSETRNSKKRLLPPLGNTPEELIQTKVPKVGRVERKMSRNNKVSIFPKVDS

[12] = target: 318 nonolfactory human GPCRs (Homo sapiens, UniProt P25025); details: CXCR2; C21 5 µM
[13] = target: 318 nonolfactory human GPCRs (Homo sapiens, UniProt Q8TDS4); details: HCA2; C21 5 µM
[14] = target: T11, 318 nonolfactory human GPCRs (Homo sapiens, UniProt Q8NDV2); details: GPR26; C21 5 µM
T11 construct: expressed in transfected cells; host or cells: HTLA cells, transient
T11 sequence (Q8NDV2 whole entry): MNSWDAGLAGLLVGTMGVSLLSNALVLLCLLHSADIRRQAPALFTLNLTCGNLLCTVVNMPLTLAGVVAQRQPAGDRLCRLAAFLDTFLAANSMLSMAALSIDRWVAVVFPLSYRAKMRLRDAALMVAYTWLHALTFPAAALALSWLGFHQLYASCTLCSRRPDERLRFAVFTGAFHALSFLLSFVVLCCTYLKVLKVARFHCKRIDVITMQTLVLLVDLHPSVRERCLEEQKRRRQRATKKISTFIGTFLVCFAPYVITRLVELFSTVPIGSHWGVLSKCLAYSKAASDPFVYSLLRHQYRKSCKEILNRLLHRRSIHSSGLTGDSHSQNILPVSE

[15] = target: T12, 318 nonolfactory human GPCRs (Homo sapiens, UniProt Q8TDV2); details: GPR148; C21 5 µM
T12 construct: expressed in transfected cells; host or cells: HTLA cells, transient

[16] = target: T13, 318 nonolfactory human GPCRs (Homo sapiens, UniProt P46663); details: BDKBR1; C21 5 µM
T13 construct: expressed in transfected cells; host or cells: HTLA cells, transient

[17] = target: 318 nonolfactory human GPCRs (Homo sapiens, UniProt P21918); details: DRD5; C21 5 µM
[18] = target: 318 nonolfactory human GPCRs (Homo sapiens, UniProt Q99500); details: S1PR3; C21 5 µM
Chain of 318 nonolfactory human GPCRs (Homo sapiens, UniProt Q99500) (Q99500 whole entry): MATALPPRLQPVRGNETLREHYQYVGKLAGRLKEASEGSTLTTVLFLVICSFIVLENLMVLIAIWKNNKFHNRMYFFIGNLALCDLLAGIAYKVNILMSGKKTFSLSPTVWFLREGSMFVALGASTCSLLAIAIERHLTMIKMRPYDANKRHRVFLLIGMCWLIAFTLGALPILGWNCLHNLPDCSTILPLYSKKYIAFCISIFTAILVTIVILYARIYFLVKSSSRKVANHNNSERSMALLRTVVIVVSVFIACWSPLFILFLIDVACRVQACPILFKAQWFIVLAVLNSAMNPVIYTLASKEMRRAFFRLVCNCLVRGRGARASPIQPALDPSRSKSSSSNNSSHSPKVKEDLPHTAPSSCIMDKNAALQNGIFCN

[19] = target: T14, 318 nonolfactory human GPCRs (Homo sapiens, UniProt O14842); details: FFA1; C21 5 µM
T14 construct: expressed in transfected cells; host or cells: HTLA cells, transient

[20] = target: T15, 318 nonolfactory human GPCRs (Homo sapiens, UniProt P32248); details: CCR7; C21 5 µM
T15 construct: expressed in transfected cells; host or cells: HTLA cells, transient

[21] = target: T16, 318 nonolfactory human GPCRs (Homo sapiens, UniProt Q8TDT2); details: GPR152; C21 5 µM
T16 construct: expressed in transfected cells; host or cells: HTLA cells, transient
T16 sequence (Q8TDT2 whole entry): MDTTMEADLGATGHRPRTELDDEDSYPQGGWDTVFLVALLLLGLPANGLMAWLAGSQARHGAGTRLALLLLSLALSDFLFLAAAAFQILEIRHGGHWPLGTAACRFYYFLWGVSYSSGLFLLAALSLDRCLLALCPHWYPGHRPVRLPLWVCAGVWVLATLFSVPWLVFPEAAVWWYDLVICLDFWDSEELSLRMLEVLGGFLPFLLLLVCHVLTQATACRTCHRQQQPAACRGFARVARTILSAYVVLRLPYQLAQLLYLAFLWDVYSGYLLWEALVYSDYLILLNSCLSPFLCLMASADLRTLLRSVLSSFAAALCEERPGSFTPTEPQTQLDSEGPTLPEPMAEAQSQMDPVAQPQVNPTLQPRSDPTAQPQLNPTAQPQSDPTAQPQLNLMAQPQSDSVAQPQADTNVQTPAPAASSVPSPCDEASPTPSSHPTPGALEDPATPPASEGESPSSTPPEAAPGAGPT

[22] = target: T17, 318 nonolfactory human GPCRs (Homo sapiens, UniProt P47871); details: GCGR; C21 5 µM
T17 construct: expressed in transfected cells; host or cells: HTLA cells, transient
T17 sequence (P47871 26-477): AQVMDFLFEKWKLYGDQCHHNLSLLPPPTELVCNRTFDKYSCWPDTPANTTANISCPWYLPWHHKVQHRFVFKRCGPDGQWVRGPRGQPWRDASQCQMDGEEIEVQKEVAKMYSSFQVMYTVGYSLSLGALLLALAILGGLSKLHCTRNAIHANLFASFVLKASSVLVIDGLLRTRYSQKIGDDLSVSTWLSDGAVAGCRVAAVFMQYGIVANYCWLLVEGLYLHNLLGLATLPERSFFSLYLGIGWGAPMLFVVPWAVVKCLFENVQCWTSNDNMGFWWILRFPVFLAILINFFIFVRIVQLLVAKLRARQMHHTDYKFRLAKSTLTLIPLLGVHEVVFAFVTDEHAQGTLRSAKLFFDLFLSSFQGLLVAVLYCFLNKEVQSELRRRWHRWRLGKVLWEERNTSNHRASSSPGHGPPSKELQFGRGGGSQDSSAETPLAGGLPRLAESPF

[23] = target: T18, 318 nonolfactory human GPCRs (Homo sapiens, UniProt P51582); details: P2RY4; C21 5 µM
T18 construct: expressed in transfected cells; host or cells: HTLA cells, transient

[24] = target: T19, 318 nonolfactory human GPCRs (Homo sapiens, UniProt Q9Y5N1); details: HRH3; C21 5 µM
T19 construct: expressed in transfected cells; host or cells: HTLA cells, transient

[25] = target: T20, 318 nonolfactory human GPCRs (Homo sapiens, UniProt Q9GZQ6); details: NPFF1; C21 5 µM
T20 construct: expressed in transfected cells; host or cells: HTLA cells, transient

[26] = target: 318 nonolfactory human GPCRs (Homo sapiens, UniProt P25090); details: FPR2; C21 5 µM
Chain of 318 nonolfactory human GPCRs (Homo sapiens, UniProt P25090) (P25090 whole entry): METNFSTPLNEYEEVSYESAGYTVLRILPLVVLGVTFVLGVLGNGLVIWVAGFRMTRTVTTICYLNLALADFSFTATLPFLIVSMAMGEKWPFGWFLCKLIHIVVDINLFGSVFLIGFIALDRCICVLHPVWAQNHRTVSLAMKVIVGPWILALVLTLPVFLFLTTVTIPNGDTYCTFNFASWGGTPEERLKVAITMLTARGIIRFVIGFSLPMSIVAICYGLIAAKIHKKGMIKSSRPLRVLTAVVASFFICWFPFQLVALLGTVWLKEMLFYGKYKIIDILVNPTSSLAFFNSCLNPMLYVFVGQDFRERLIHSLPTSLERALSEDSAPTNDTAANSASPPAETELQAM

[27] = target: T21, 318 nonolfactory human GPCRs (Homo sapiens, UniProt P25101); details: EDNRA; C21 5 µM
T21 construct: expressed in transfected cells; host or cells: HTLA cells, transient

[28] = target: T22, 318 nonolfactory human GPCRs (Homo sapiens, UniProt P34969); details: HTR7; C21 5 µM
T22 construct: expressed in transfected cells; host or cells: HTLA cells, transient
T22 sequence (P34969 whole entry): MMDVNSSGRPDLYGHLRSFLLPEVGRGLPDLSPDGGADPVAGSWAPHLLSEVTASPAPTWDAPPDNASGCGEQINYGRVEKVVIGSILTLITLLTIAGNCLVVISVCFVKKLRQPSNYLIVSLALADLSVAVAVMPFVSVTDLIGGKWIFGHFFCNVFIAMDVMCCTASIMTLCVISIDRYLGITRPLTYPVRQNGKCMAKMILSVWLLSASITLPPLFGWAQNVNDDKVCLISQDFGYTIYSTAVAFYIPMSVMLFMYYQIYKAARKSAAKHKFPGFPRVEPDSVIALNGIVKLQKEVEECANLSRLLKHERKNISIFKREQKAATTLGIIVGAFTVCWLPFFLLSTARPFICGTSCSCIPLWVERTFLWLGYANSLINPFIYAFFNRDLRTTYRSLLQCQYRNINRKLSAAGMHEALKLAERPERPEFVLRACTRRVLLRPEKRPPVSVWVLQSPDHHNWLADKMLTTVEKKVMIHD

[29] = target: T23, 318 nonolfactory human GPCRs (Homo sapiens, UniProt P32247); details: BB3; C21 5 µM
T23 construct: expressed in transfected cells; host or cells: HTLA cells, transient

[30] = target: T24, 318 nonolfactory human GPCRs (Homo sapiens, UniProt Q9NS75); details: CYSLTR2; C21 5 µM
T24 construct: expressed in transfected cells; host or cells: HTLA cells, transient

[31] = target: T25, 318 nonolfactory human GPCRs (Homo sapiens, UniProt Q9UKP6); details: UTS2R; C21 5 µM
T25 construct: expressed in transfected cells; host or cells: HTLA cells, transient

[32] = target: T26, 318 nonolfactory human GPCRs (Homo sapiens, UniProt P30939); details: HTR1F; C21 5 µM
T26 construct: expressed in transfected cells; host or cells: HTLA cells, transient
T26 sequence (P30939 whole entry): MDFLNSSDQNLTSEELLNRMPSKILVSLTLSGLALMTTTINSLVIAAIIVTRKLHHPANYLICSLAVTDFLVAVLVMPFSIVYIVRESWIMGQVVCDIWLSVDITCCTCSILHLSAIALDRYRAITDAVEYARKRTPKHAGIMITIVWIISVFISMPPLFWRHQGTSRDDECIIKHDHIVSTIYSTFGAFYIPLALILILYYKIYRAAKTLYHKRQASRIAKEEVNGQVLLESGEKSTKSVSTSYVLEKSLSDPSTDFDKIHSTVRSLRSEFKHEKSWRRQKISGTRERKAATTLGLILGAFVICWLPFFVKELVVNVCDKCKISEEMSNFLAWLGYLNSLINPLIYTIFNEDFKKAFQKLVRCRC

[33] = target: T27, 318 nonolfactory human GPCRs (Homo sapiens, UniProt P41587); details: VIPR2; C21 5 µM
T27 construct: expressed in transfected cells; host or cells: HTLA cells, transient

[34] = target: T28, 318 nonolfactory human GPCRs (Homo sapiens, UniProt Q8TDU6); details: GPBA; C21 5 µM
T28 construct: expressed in transfected cells; host or cells: HTLA cells, transient

c1ccc2c(c1)N=C(N1CCNCC1)c1ccccc1N2 [C21, 11-(1-piperazinyl)-5H-dibenzo[b,e][1,4]diazepine]
FOLD OVER BASAL [1]: 1.2 fold and 1.3 fold and 0.9 fold | FOLD OVER BASAL [2]: 1 fold and 0.6 fold and 0.8 fold | FOLD OVER BASAL [3]: 0.7 fold and 0.6 fold | FOLD OVER BASAL [4]: 1.4 fold and 0.8 fold and 1.3 fold | FOLD OVER BASAL [5]: 1.2 fold and 1.1 fold and 1.4 fold | FOLD OVER BASAL [6]: 0.5 fold and 0.6 fold and 0.7 fold | FOLD OVER BASAL [7]: 0.8 fold and 1 fold and 1.2 fold | FOLD OVER BASAL [8]: 1.3 fold and 2.1 fold and 1.5 fold and 1.4 fold | FOLD OVER BASAL [9]: 0.8 fold and 0.9 fold and 0.6 fold | FOLD OVER BASAL [10]: 0.8 fold and 0.5 fold and 0.7 fold and 0.9 fold | FOLD OVER BASAL [11]: 0.3 fold and 0.6 fold and 0.5 fold and 0.4 fold | FOLD OVER BASAL [12]: 0.9 fold and 1 fold | FOLD OVER BASAL [13]: 1.2 fold and 1.1 fold and 1.3 fold and 1.4 fold | FOLD OVER BASAL [14]: 1.5 fold and 0.8 fold and 1 fold and 0.9 fold | FOLD OVER BASAL [15]: 0.9 fold and 0.6 fold and 0.5 fold and 1 fold | FOLD OVER BASAL [16]: 0.6 fold and 0.3 fold | FOLD OVER BASAL [17]: 0.8 fold and 0.7 fold | FOLD OVER BASAL [18]: 0.9 fold and 0.8 fold and 1 fold | FOLD OVER BASAL [19]: 0.4 fold and 0.7 fold and 0.8 fold | FOLD OVER BASAL [20]: 1.6 fold and 0.9 fold and 0.8 fold | FOLD OVER BASAL [21]: 0.5 fold and 0.7 fold and 0.6 fold | FOLD OVER BASAL [22]: 0.3 fold and 0.2 fold and 0.4 fold | FOLD OVER BASAL [23]: 1 fold and 0.9 fold | FOLD OVER BASAL [24]: 1.3 fold and 0.9 fold and 0.8 fold | FOLD OVER BASAL [25]: 1.5 fold and 1.1 fold and 1.2 fold | FOLD OVER BASAL [26]: 1 fold and 1.1 fold and 0.9 fold | FOLD OVER BASAL [27]: 0.8 fold and 1.4 fold and 0.9 fold | FOLD OVER BASAL [28]: 0.9 fold and 0.8 fold and 1 fold | FOLD OVER BASAL [29]: 0.9 fold and 1.3 fold and 1 fold | FOLD OVER BASAL [30]: 0.7 fold and 0.9 fold and 1.1 fold | FOLD OVER BASAL [31]: 0.8 fold and 0.9 fold and 1 fold | FOLD OVER BASAL [32]: 1.1 fold and 1 fold and 0.8 fold | FOLD OVER BASAL [33]: 0.6 fold and 0.8 fold and 0.9 fold | FOLD OVER BASAL [34]: 1.1 fold and 1 fold and 1.2 fold
